For data set [1], the system named is CD69 by B lymphocytes in human whole blood. The data set can be described thus: CD69 Whole Blood Assay. Type of data set: cell-based. To be noted: Lymphocyte; human whole blood activated with goat F(ab')2 anti-human IgM, 20 hours; CD69 positive cells that are also CD20 positive. An excerpt: A CD69 Whole Blood Assay can be conducted on Formula I compounds to determine the ability of compounds to inhibit the production of CD69 by B lymphocytes in human whole blood activated by crosslinking surface IgM with goat F(ab′)2 anti-human IgM (Example 907).
Human blood is obtained from healthy volunteers, with the following restrictions: 1 week drug-free, non-smokers. Blood (approximately 20 mls to test 8 compounds) is collected by venipuncture into Vacutainer® (Becton, Dickinson and Co.) tubes with sodium heparin.
Solutions of Formula I compounds at 10 mM in DMSO are diluted 1:10 in 100% DMSO, then are diluted by three-fold serial dilutions in 100% DMSO for a ten point dose-response curve. The compounds are further diluted 1:10 in PBS and then an aliquot of 5.5 μl of each compound is added in duplicate to a 2 ml 96-well plate; 5.5 μl of 10% DMSO in PBS is added as control and no-stimulus wells. Human whole blood—HWB (100 μl) is added to each well. After mixing the plates are incubated at 37° C., 5% CO2, 100% humidity for 30 minutes. […] Data acquired and Mean Fluorescence Intensity values were obtained using BD Biosciences DIVA Software. Results are initially analyzed by FACS analysis software (Flow Jo). […] The IC50 values are calculated by Prism version 5, using a nonlinear regression curve fit.

Data set [2] deals with full length human wildtype Btk (Homo sapiens (Human), UniProt Q06187). The data set can be described thus: Biochemical Btk Kinase Assay. The method, then: Formula I compounds were tested by a standard biochemical Btk Kinase Assay (Example 901). A generalized procedure for a standard biochemical Btk Kinase Assay that can be used to test Formula I compounds is as follows. […] Btk enzyme is prepared as follows: full length human wildtype Btk (accession number NM-000061) with a C-terminal V5 and 6× His tag was subcloned into pFastBac vector for making baculovirus carrying this epitope-tagged Btk. Generation of baculovirus is done based on Invitrogen's instructions detailed in its published protocol “Bac-to-Bac Baculovirus Expression Systems” (Cat. Nos. 10359-016 and 10608-016). […] A quantity of 1.25 μL of compounds in 5% DMSO is transferred to a 96-well ½ area Costar polystyrene plate. […] A quantity of 18.75 μL of master mix minus enzyme (as a negative control) and master mix plus enzyme is transferred to appropriate wells in 96-well ½ area costar polystyrene plate. […] The plate is read using time-resolved fluorescence with a Perkin Elmer Envision using excitation filter 330 nm, emission filter 665 nm, and 2nd emission filter 615 nm. IC50 values are subsequently calculated. Alternatively, the Lanthascreen assay can be used to evaluate Btk activity through quantification of its phosphorylated peptide product. […] Detection is determined on a Perkin Elmer Envision with 340 nm excitation and emission at 495 nm and 520 nm. […]

pIC50: −log10 of the molar value.

The text below walks through data of patent publication US8975260B2, “Pyridazinones, method of making, and method of use thereof” (Genetech, Inc, priority 2010, dated 2015).

Sequence of full length human wildtype Btk (Q06187 whole entry): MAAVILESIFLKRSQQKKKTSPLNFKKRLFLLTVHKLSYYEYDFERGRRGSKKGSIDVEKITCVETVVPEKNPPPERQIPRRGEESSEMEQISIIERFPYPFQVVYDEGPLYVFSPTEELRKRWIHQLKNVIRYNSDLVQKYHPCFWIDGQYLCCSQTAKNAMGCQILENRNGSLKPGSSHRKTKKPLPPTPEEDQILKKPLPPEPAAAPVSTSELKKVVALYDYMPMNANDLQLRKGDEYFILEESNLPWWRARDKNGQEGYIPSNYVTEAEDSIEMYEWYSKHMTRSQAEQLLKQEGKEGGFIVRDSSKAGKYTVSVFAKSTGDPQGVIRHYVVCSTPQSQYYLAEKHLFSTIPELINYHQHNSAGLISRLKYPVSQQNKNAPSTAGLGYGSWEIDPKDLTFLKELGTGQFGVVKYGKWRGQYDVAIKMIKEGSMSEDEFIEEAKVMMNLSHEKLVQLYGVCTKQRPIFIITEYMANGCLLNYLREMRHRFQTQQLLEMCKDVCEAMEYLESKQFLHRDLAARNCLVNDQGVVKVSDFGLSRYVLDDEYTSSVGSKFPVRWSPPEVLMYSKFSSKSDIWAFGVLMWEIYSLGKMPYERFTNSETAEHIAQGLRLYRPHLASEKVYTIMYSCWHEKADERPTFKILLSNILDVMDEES

As a reminder, the pIC50 is −log10 of the IC50, conventionally taken in molar units. `CN1CCn2nc(Nc3cc(-c4cccc(N5Cc6cc(C(C)(C)C)ccc6C5=O)c4CO)nn(C)c3=O)cc2C1` [Compound 145, 5-tert-butyl-2-[2-(hydroxymethyl)-3-[1-methyl-5-({5-methyl-4H,5H,6H,7H-pyrazolo[1,5-a]pyrazin-2-yl}amino)-6-oxo-1,6-dihydropyridazin-3-yl]phenyl]-2,3-dihydro-1H-isoindol-1-one]: in data set [1], the pIC50 is 7.04.

As usually defined, the melting point is the temperature, or range, at which the solid turns liquid. Take `Cn1nc(-c2cccc(N3Cc4cc(C(C)(C)C)ccc4C3=O)c2CO)cc(Nc2ccncn2)c1=O` [Compound 103, 5-tert-Butyl-2-(2-(hydroxymethyl)-3-(1-methyl-6-oxo-5-(pyrimidin-4-ylamino)-1,6-dihydropyridazin-3-yl)phenyl)isoindolin-1-one]: the melting point fell in the range of 236 to 238 °C.

As for `Cn1nc(-c2cccc(N3Cc4cc(C(C)(C)C)ccc4C3=O)c2CO)cc(Nc2ccn(C3CNC3)n2)c1=O` [Compound 105, 2-(3-(5-(1-(Azetidin-3-yl)-1H-pyrazol-3-ylamino)-1-methyl-6-oxo-1,6-dihydropyridazin-3-yl)-2-(hydroxymethyl)phenyl)-5-tert-butylisoindolin-1-one], the melting point lay within 202 to 204 °C.

Consider `Cc1c(-c2cc(Nc3cc4n(n3)CCN(C)C4)c(=O)n(COP(=O)([O-])[O-])n2)cccc1N1Cc2cc(C(C)(C)C)sc2C1=O.[Na+].[Na+]` [Compound 108, Sodium (3-(3-(2-tert-Butyl-6-oxo-4H-thieno[2,3-c]pyrrol-5(6H)-yl)-2-methylphenyl)-5-(5-methyl-4,5,6,7-tetrahydropyrazolo[1,5-a]pyrazin-2-ylamino)-6-oxopyridazin-1(6H)-yl)methyl Phosphate], for which the melting point is 240 to 242 °C.

For the molecule `CCn1ccc(Nc2cc(-c3cccc(N4Cc5cc(C(C)(C)C)ccc5C4=O)c3CO)nn(C)c2=O)n1` [Compound 102, 5-tert-Butyl-2-(3-(5-(1-ethyl-1H-pyrazol-3-ylamino)-1-methyl-6-oxo-1,6-dihydropyridazin-3-yl)-2-(hydroxymethyl)phenyl)isoindolin-1-one], the melting point fell in the range of 174 to 176 °C.

Molecule `Cc1c(-c2cc(Nc3cc4n(n3)CCN(C)C4)c(=O)[nH]n2)cccc1N1Cc2ccc(C(C)(C)C)cc2C1=O` [Compound 107, 6-tert-Butyl-2-(2-methyl-3-(5-(5-methyl-4,5,6,7-tetrahydropyrazolo[1,5-a]pyrazin-2-ylamino)-6-oxo-1,6-dihydropyridazin-3-yl)phenyl)isoindolin-1-one] came in with a melting point of 208 to 210 °C. Besides, the pIC50 in data set [1] was 6.34. For the same molecule, in data set [2], the pIC50 is 7.85.

With `CCN(C)c1ccc2c(c1)CN(c1cccc(-c3cc(Nc4cc5n(n4)CCN(C)C5)c(=O)n(C)n3)c1CO)C2=O` [Compound 106, 5-(Ethyl(methyl)amino)-2-(2-(hydroxymethyl)-3-(1-methyl-5-(5-methyl-4,5,6,7-tetrahydropyrazolo[1,5-a]pyrazin-2-ylamino)-6-oxo-1,6-dihydropyridazin-3-yl)phenyl)isoindolin-1-one], the melting point fell in the range of 145 to 147 °C.

With `Cn1nc(-c2cccc(N3Cc4cc(C(C)(C)C)ccc4C3=O)c2CO)cc(Nc2ccccn2)c1=O` [Compound 104, 5-tert-Butyl-2-(2-(hydroxymethyl)-3-(1-methyl-6-oxo-5-(pyridin-2-ylamino)-1,6-dihydropyridazin-3-yl)phenyl)isoindolin-1-one], the melting point was in the range of 236 to 237 °C.
